Experimental data: BindingDB's records for doi:10.1016/s0960-894x(99)00397-2 (Chungnam National University, 1999)

Biological target: DNA topoisomerase 1 (Bos taurus)
Assay: Compound was evaluated for the inhibition of DNA topoisomerase-1 of calf thymus

Row | SMILES | IC50 [µM]
1 | COc1cc(C(C)O)c(OC)c2c1C(=O)C=CC2=O (stereo not given) [6-(1-Hydroxy-ethyl)-5,8-dimethoxy-[1,4]naphthoquinone] | 111
2 | CCCCCCC(O)c1cc(OC)c2c(c1OC)C(=O)C=CC2=O (stereo not given) [6-(1-Hydroxy-heptyl)-5,8-dimethoxy-[1,4]naphthoquinone] | 30.1
3 | CCCCCC(O)c1cc(OC)c2c(c1OC)C(=O)C=CC2=O (stereo not given) [6-(1-Hydroxy-hexyl)-5,8-dimethoxy-[1,4]naphthoquinone] | 39
4 | CCCCCCCC(O)c1cc(OC)c2c(c1OC)C(=O)C=CC2=O (stereo not given) [6-(1-Hydroxy-octyl)-5,8-dimethoxy-[1,4]naphthoquinone] | 43.9
5 | CCC(O)c1cc(OC)c2c(c1OC)C(=O)C=CC2=O (stereo not given) [6-(1-Hydroxy-propyl)-5,8-dimethoxy-[1,4]naphthoquinone] | 122
